{
  "source": "patent US20250262215A1",
  "about": "“USE OF CYCLIN E1 STATUS AS A PREDICTIVE BIOMARKER FOR TREATING CANCER WITH WEE1 INHIBITORS” (Zeno Management, Inc., priority 2022, published 2025)",
  "molecules": {"B1": {"name": "ABBV-155 (conjugate, chains of the INN, looked up)", "VH": "EVQLQESGPGLVKPSETLSLTCAVTGYSITSGYSWHWIRQFPGNGLEWMGYIHSSGSTNYNPSLKSRISISRDTSKNQFFLKLSSVTAADTAVYYCAGYDDYFEYWGQGTTVTVSS", "VL": "DIQMTQSPSSLSASVGDRVTITCKASQNVGFNVAWYQQKPGKSPKALIYSASYRYSGVPSRFSGSGSGTDFTLTISSLQPEDFAEYFCQQYNWYPFTFGQGTKLEIK", "modifications": "clezutoclax payload"}, "B2": {"name": "XMT1536 (conjugate, chains of the INN, looked up)", "VH": "QVQLVQSGAEVVKPGASVKMSCKASGYTFTGYNIHWVKQAPGQGLEWIGAIYPGNGDTSYKQKFRGRATLTADTSTSTVYMELSSLRSEDSAVYYCARGETARATFAYWGQGTLVTVSS", "VL": "DIQMTQSPSSLSASVGDRVTITCSASQDIGNFLNWYQQKPGKTVKVLIYYTSSLYSGVPSRFSGSGSGTDYTLTISSLQPEDFATYYCQQYSKLPLTFGQGTKLELK", "modifications": "rilsodotin (auristatin) payload"}},
  "key": {"[1]": {"system": "CCNE1-amplified platinum-resistant ovarian cancer", "parameters": "key: CR: complete response; PR: partial response; SD: stable disease; PD: progressive disease; NE: not evaluable; NA: not available", "conditions": "one subject, before Azenosertib; cited from earlier work"}, "[2]": {"system": "A2780 non-CCNE1-amplified (CN = 2) (Cyclin E1-low)", "experiment": "Azenosertib and paclitaxel combination study, A2780 tumors", "format": "in vivo, mice", "conditions": "Azenosertib 60 mg/kg QD and/or paclitaxel 10 mg/kg, schedules of Table 2", "text": "(§1) To evaluate the effects of Azenosertib in combination with paclitaxel, mice were inoculated with A 2780 (non-CCNE1-amplified, CN=2) (FIGS. 10A and 10B) or OVCAR3 (CCNE1 amplified, CN=14) (FIG. 11A and FIG. 11B) cells. Animals were randomized and treated as summarized in Table 2 once the mean tumor volume reached a specified size."}, "[3]": {"system": "OVCAR3 CCNE1-amplified (CN = 14) (Cyclin E1-high)", "experiment": "Azenosertib and paclitaxel combination study, OVCAR3 tumors", "format": "in vivo, mice", "conditions": "Azenosertib 60 mg/kg QD × 28 and/or paclitaxel 5 mg/kg 4 days on, 3 days off × 4 cycles", "text": "as §1"}, "HGSOC cells": {"system": "HGSOC cells", "experiment": "Growth rate inhibition (GR) by CellTiter-Glo and GR calculator", "format": "cell-based", "conditions": "for effect on growth rate (GR): relative to untreated control", "text": "To confirm whether Cyclin E1 expression levels were responsible for increased sensitivity to Azenosertib, OV90, Kuramochi and COV362 cells (low endogenous expression levels of Cyclin E1) were transduced with a lentiviral vector carrying the CCNE1 gene or with an empty vector control. Stable OV90, Kuramochi and COV362 cell lines were established by puromycin selection. Cyclin E1 overexpression in the stable OV90 cell line compared to empty vector control cells was confirmed by Western blotting (FIG. 1C). […] Sensitization of HGSOC cell lines by overexpression of Cyclin E1 to Azenosertib was assessed by plotting the growth-rate (GR) inhibition in FIG. 1D. It was observed that Cyclin E1 overexpression sensitized HGSOC cell lines to Azenosertib by further decreasing growth rate and cell viability compared to control empty vector cell lines (FIG. 1D). GR50 and IC50 values of Azenosertib were determined by CellTiter-Glo (CTG) assay and the GR calculator.\nHGSOC cells were assessed for growth rate inhibition (GR) in the presence of Azenosertib (relative to an untreated control). GR value is independent of cell division rate and was determined as described in Hafner et al. (Curr. Protoc. Chem. Biol. 9, 96-116 (2017)). HGSOC cells with high Cyclin E1 protein expression were amongst the most sensitive to Azenosertib. […] (FIG. 2). […] In Cyclin E1-low ovarian cancer cell lines, overexpression of Cyclin E1 by lentivirus increased sensitivity to Azenosertib."}, "[4]": {"system": "SKOV3 cells (non-CCNE1-amplified, wild-type CCNE1 CN=2)", "experiment": "SKOV3 cell line-derived xenograft (CDX), tumor growth inhibition", "format": "in vivo, mice", "conditions": "80 mg/kg Azenosertib daily", "procedure": "Mice were inoculated with SKOV3 cells (non-CCNE1-amplified, wild-type CCNE1 CN=2) on the right flank with the single cell suspension of 95% viable tumor cells (1×10^7) in 100 μL McCoy's 5a and Matrigel mixture (1:1 ratio) without serum for the tumor development. Animals were randomized and treated with vehicle (20% HP-β-CD) or 80 mg/kg Azenosertib daily for 21 days when the mean tumor volume reached 215 mm^3. Tumor growth inhibition (TGI) was calculated using the following equation TGI=(1−(Td−T0)/(Cd−C0))×100%. Td and Cd are the mean tumor volumes of the treated and control animals, and T0 and C0 are the mean tumor volumes of the treated and control animals at the start of the experiment. […] (FIGS. 6A and 6B)."}, "[5]": {"system": "OVCAR8 (non=CCNE1-amplified) CDX", "experiment": "OVCAR8 CDX model, tumor growth inhibition", "format": "in vivo, mice", "conditions": "80 mg/kg Azenosertib daily for 39 days"}, "[6]": {"system": "HCC1806 human triple negative breast cancer cells (CCNE1-amplified, CN=7)", "experiment": "HCC1806 xenograft, tumor growth", "format": "in vivo, BALB/c nude mice", "conditions": "80 mg/kg Azenosertib daily; after 28 days", "procedure": "1×10^6 HCC1806 human triple negative breast cancer cells (CCNE1-amplified, CN=7) were inoculated into the right flank of ten 6-8-week-old female BALB/c nude mice. Animals were randomized and treatment started when the mean tumor volume reached 155 mm^3. Animals were treated with vehicle (20% HP-β-CD) or 80 mg/kg Azenosertib daily and tumor volumes and body weight were measured twice weekly."}, "[7]": {"system": "OVCAR-3 cells (CCNE1-amplified, CN=14)", "experiment": "OVCAR-3 xenograft, tumor growth inhibition", "format": "in vivo, NOD/SCID mice", "conditions": "80 mg/kg Azenosertib daily; after 28 days", "procedure": "6-8 weeks old female NOD/SCID mice were inoculated with OVCAR-3 cells (CCNE1-amplified, CN=14) into the right flank. Animals were randomized and treated with […] (20% HP-β-CD) or 80 mg/kg Azenosertib daily once the mean tumor volume reached 111 mm^3. Tumor volumes and body weight were measured twice weekly. […] Reduction in tumor growth was also observed in animals treated with 40 mg/kg Azenosertib daily, 60 mg/kg Azenosertib daily, 80 mg/kg Azenosertib daily. (FIGS. 8C and 8D)."}, "[8]": {"system": "CCNE1-amplified platinum-resistant ovarian cancer", "experiment": "Azenosertib in one heavily pre-treated subject (Example 10)", "format": "in vivo, human", "conditions": "at least 400 mg once a day, 5 days on, two off days, for 11 months", "procedure": "The subject was selected to have CCNE1-amplified status (confirmed by Foundation assay) and was administered Azenosertib in accordance with an intermittent dosing schedule of at least 400 mg Azenosertib once a day for five consecutive days, followed by two off days for 11 months. The subject is a person who received 10 prior lines of therapy: (1) Avelumab (SD); (2) Doxorubicin Liposomal (PD); (3) Topotecan/bevacizumab (PD); (4) Cyclophosphamide/bevacizumab (unk); (5) XMT1536 (NaPi2b ADC) (PR); (6) APG115 (MDM2 inh)/Pembrolizumab (SD); (7) ABBV-155 ([…] ADC) (PD); (8) NC 318 (Siglec-15 mA B) (SD); (9) SM 08502 (CLK inhibitor) (PD); (10) NBMBMX (HDAC8 inh) (SD)."}, "[9]": {"system": "SKOV3, OVCAR3 and HCC1806 tumors", "experiment": "Tolerability in tumor-bearing mice dosed orally every day (Example 3)", "format": "in vivo, NOD/SCID mice or BALB/c nude mice", "procedure": "NOD/SCID mice (SKOV3-Cyclin E1-low and OVCAR3-Cyclin E1-high) or BALB/c nude mice (HCC1806) bearing corresponding tumors were dosed orally every day for the time as shown in FIGS. 5A and 8A. Treatment was well-tolerated and the change in tumor volume was plotted against time of administration. Target engagement of Azenosertib (decreased pCDK1) and γH2AX were examined by IHC in tumors after 12 hrs of Azenosertib treatment in SKOV3-Cyclin E1-low and OVCAR3-Cyclin E1-high cells. Y-axis represents the sum of H-score evaluated by 3 independent pathologists (FIGS. 4B and 4C). Replication stress markers pCHK1 and γH2AX were determined by Western Blot in OVCAR3 tumor samples with or without Azenosertib treatment for 12 hrs (FIG. 4D)."}},
  "data": [
    {"molecule": "CN1CCN(c2cc(C(=O)Nc3cc4cc(-c5cnn(C)c5)ccc4cn3)ccn2)CC1", "note": "[SM 08502, reference compound]", "values": [
      {"measurement": "response to prior line of therapy", "setting": "[1]", "value": "PD"}
    ]},
    {"molecule": "Avelumab: prior line of therapy of the subject [reference compound]", "values": [
      {"measurement": "response to prior line of therapy", "setting": "[1]", "value": "SD"}
    ]},
    {"molecule": "CC(=O)O[C@H]1C(=O)[C@@]2(C)[C@H]([C@H](OC(=O)c3ccccc3)[C@]3(O)C[C@H](OC(=O)[C@H](O)[C@@H](NC(=O)c4ccccc4)c4ccccc4)C(C)=C1C3(C)C)[C@]1(OC(C)=O)CO[C@@H]1C[C@@H]2O", "note": "[Paclitaxel, paclitaxel, reference compound]", "values": [
      {"measurement": "Tumor Growth Inhibition", "setting": "[2]", "value": 46, "unit": "%"},
      {"measurement": "Tumor Growth Inhibition", "setting": "[3]", "value": 74, "unit": "%"}
    ]},
    {"molecule": "C=CCn1c(=O)c2cnc(Nc3ccc(N4CCN(C)CC4)cc3)nc2n1-c1ccc2c(n1)[C@@](O)(CC)CC2", "note": "[Azenosertib]", "values": [
      {"measurement": "effect on growth rate (GR)", "setting": "HGSOC cells; COV362, JHOMI, OAW28, OVCAR3, CAOV3, and OVCAR4 cells", "value": "cytotoxic effect"},
      {"measurement": "effect on growth rate (GR)", "setting": "HGSOC cells; ES2 and TYK-nu cells", "value": "cytotoxic effect"},
      {"measurement": "effect on growth rate (GR)", "setting": "HGSOC cells; OV90 and Kuramochi cells", "value": "inhibitory effect"},
      {"measurement": "GRmax", "setting": "HGSOC cells; ovarian cancer cell lines overexpressing Cyclin E1 protein (Cyclin E1-high)", "value": "< −0.5"},
      {"measurement": "average tumor growth inhibition TGI(80 mpk, Day 28)", "setting": "[4]", "value": 51.5, "unit": "%"},
      {"measurement": "average tumor growth inhibition TGI(80 mpk, Day 28)", "setting": "[5]", "value": 52.8, "unit": "%"},
      {"measurement": "reduced tumor growth vs vehicle", "setting": "[6]", "value": 63.5, "unit": "%"},
      {"measurement": "reduced tumor growth TGI(80 mpk, Day 28)", "setting": "[7]", "value": 88, "unit": "%"},
      {"measurement": "Tumor Growth Inhibition", "setting": "[2]", "value": 34, "unit": "%"},
      {"measurement": "Tumor Growth Inhibition", "setting": "[3]", "value": 68, "unit": "%"},
      {"measurement": "durable cPR", "setting": "[8]", "value": "−71", "unit": "%"},
      {"measurement": "tolerability of treatment", "setting": "[9]", "value": "well-tolerated"}
    ]},
    {"molecule": "B1", "values": [
      {"measurement": "response to prior line of therapy", "setting": "[1]", "value": "PD"}
    ]},
    {"molecule": "B2", "values": [
      {"measurement": "response to prior line of therapy", "setting": "[1]", "value": "PR"}
    ]}
  ]
}
